According to patent US20220221458A1, “NOROVIRUS-BINDING PEPTIDE” (Kao Corporation, priority 2019, published 2022):

System: norovirus VLPs (GII.4, GII.3, GII.17)
Assay: In vitro selection by cDNA display against VLPs with appearance frequency analysis of sequences
Settings: count among peptide aptamer sequences obtained after in vitro selection cycles (7 cycles GII.4, 5 cycles GII.3 and GII.17)
Method: The constructed cDNA display and VLPs were incubated in 100 μL of a dialysis selection buffer (20 mM HEPES (pH 7.4), 150 mM NaCl, and 0.05% s Tween 20) at the concentrations shown in Table 9 below at 25° C. for 30 minutes. Subsequently, the resultant was diluted to 1 mL with the dialysis selection buffer, and was put in Float-A-Lyzer G2 Dialysis Device CE, 1000kD MWCO (manufactured by Spectrum Laboratories, Inc.) and was dialyzed with 1 L of the dialysis selection buffer as the external solution at 25° C. During the dialysis, the external solution was replaced with new one 3 times every 2 hours, and the dialysis was performed overnight (for 8 hours) after the 4th replacement. The dialysis product was concentrated with Amicon Ultra 100K (manufactured by Merck Millipore S.A.S.) at 14,000×g for 5 minutes.
To an immunoplate (C-BOTTOM, CLEAR, MICROLON (registered trademark), HIGH BINDING, manufactured by Greiner Bio-One), 100 μL of 3 μg/mL GII.3 or GII.17 VLP solution was added and immobilization was performed at 4° C. overnight. Subsequently, the solution was discarded, and 200 μL of a blocking agent (EMD Millipore™ Blok™ NSB Blocking agents, Thermo Fisher Scientific) was added, followed by gently stirring at room temperature for 2 hours for blocking. On this occasion, wells not immobilizing the VLP were also subjected to similar blocking to be used in preselection.
The solution was discarded from the wells, the wells were washed with 200 μL of a wash buffer (10 mM Hepes (pH 7.4), 150 mM NaCl, and 0.05% Tween 20) three times, and 100 μL of cDNA display (constructed from 1.5 pmol of mRNA-linker) was then put in the wells not immobilizing the VLP, followed by gently stirring at room temperature for 30 minutes to perform preselection. Subsequently, the supernatant containing cDNA display that had not bound to the blocking agent was put in the wells immobilizing the VLP, followed by gently stirring at room temperature for 30 minutes to be bound to the VLP. The supernatant was discarded, washing with 100 μL of the wash buffer was performed four times, and 100 μL of a 5′ SDS solution was then added, followed by incubation at 50° C. for 15 minutes to elute the bound cDNA display.
Subsequently, the VLP-cDNA display complex obtained above was diluted to 100 μL with a dialysis selection buffer, and 10 μL of a coprecipitating agent (Quick-Precip Plus Solution, manufactured by EdgeBio) and 220 μL of 100% ethanol were added, followed by centrifugation at 20,000×g for 5 minutes. Subsequently, the supernatant was discarded, and 1 mL of 70, ethanol was added for rinsing. […] The PCR program was (a) 98° C. for 2 minutes, (b) 95° C. for 20 seconds, (c) 69° C. for 20 seconds, (d) 72° C. for 20 seconds (steps (b) to (d) were performed 25 cycles), and (e) 72° C. for 1 minute.
After the in vitro selection cycle (7 cycles for GII.4 and 5 cycles for GII.3 and GII.17 based on the libraries of 7 cycles obtained by GII.4 dialysis), a sequence library was prepared by the following method, and the sequence information was analyzed. The preparation of the sequence library and the sequencing were performed according to the 16S Metagenomic Sequencing Library Preparation protocol (manufactured by Illumina, Inc.).
The Fastq file of the obtained sequence was converted to a Fasta file, all of the obtained sequences were simultaneously translated from the first base of the start codon (ATG) at position 115 to the third base of the cysteine codon (TGC) at position 156 of the library sequence (SEQ ID NO: 279) using software MEGA.

Row | Substance | Appearance Frequency
1 | 1 (GRRYYI; Designed peptide) [compound 1] | 23
2 | 2 (CLSNLA; Designed peptide) [compound 2] | 21
3 | 3 (GHRLHS; Designed peptide) [compound 3] | 21
4 | 4 (HLRSIR; Designed peptide) [compound 4] | 18
5 | 5 (RCSHLR; Designed peptide) [compound 5] | 18
6 | 6 (FLDTLG; Designed peptide) [compound 6] | 17
7 | 7 (GWHETE; Designed peptide) [compound 7] | 17
8 | 8 (PCSYFS; Designed peptide) [compound 8] | 17
9 | 9 (GEHAHS; Designed peptide) [compound 9] | 15
10 | 10 (GHHVSV; Designed peptide) [compound 10] | 15
11 | 11 (GHPNPR; Designed peptide) [compound 11] | 15
12 | 12 (LNWSRS; Designed peptide) [compound 12] | 15
13 | 13 (SVQSWK; Designed peptide) [compound 13] | 15
14 | 14 (RSVRMH; Designed peptide) [compound 14] | 14
15 | 15 (SIGVDR; Designed peptide) [compound 15] | 14
16 | 16 (LSKHSR; Designed peptide) [compound 16] | 13
17 | 17 (RIGHMR; Designed peptide) [compound 17] | 13
18 | 18 (SRWCLS; Designed peptide) [compound 18] | 13
19 | 19 (CTYVVE; Designed peptide) [compound 19] | 12
20 | 20 (DYVFCG; Designed peptide) [compound 20] | 12
21 | 21 (GKFFCH; Designed peptide) [compound 21] | 12
22 | 22 (GLRYRE; Designed peptide) [compound 22] | 12
23 | 23 (LKASIR; Designed peptide) [compound 23] | 12
24 | 24 (LRSGVN; Designed peptide) [compound 24] | 12
25 | 25 (NLYDRF; Designed peptide) [compound 25] | 12
26 | 26 (TWDLTL; Designed peptide) [compound 26] | 12

Row | Substance | Appearance Frequency
27 | 27 (VHYRQT; Designed peptide) [compound 27] | 12
28 | 28 (VMMQCP; Designed peptide) [compound 28] | 12
29 | 29 (DLLNSK; Designed peptide) [compound 29] | 11
30 | 30 (DRYSAW; Designed peptide) [compound 30] | 11
31 | 31 (HIPSRH; Designed peptide) [compound 31] | 11
32 | 32 (IMSSIG; Designed peptide) [compound 32] | 11
33 | 33 (SRHCVP; Designed peptide) [compound 33] | 11
34 | 34 (SVHTHR; Designed peptide) [compound 34] | 11
35 | 35 (TKRQNL; Designed peptide) [compound 35] | 11
36 | 36 (VNGVSH; Designed peptide) [compound 36] | 11
37 | 37 (WEVALH; Designed peptide) [compound 37] | 11
38 | 38 (AGYPRY; Designed peptide) [compound 38] | 10
39 | 39 (EMSRHC; Designed peptide) [compound 39] | 10
40 | 40 (FPFGST; Designed peptide) [compound 40] | 10
41 | 41 (GNIPGH; Designed peptide) [compound 41] | 10
42 | 42 (GNSPYT; Designed peptide) [compound 42] | 10
43 | 43 (HIHGRE; Designed peptide) [compound 43] | 10
44 | 44 (QSSKKF; Designed peptide) [compound 44] | 10
45 | 45 (RPFTML; Designed peptide) [compound 45] | 10
46 | 46 (RVSLYD; Designed peptide) [compound 46] | 10
47 | 47 (TTSHFK; Designed peptide) [compound 47] | 10
48 | 48 (VDSTSV; Designed peptide) [compound 48] | 10
49 | 49 (VETDGH; Designed peptide) [compound 49] | 10
50 | 50 (VIEMLD; Designed peptide) [compound 50] | 10
51 | 51 (VMCPNR; Designed peptide) [compound 51] | 10
52 | 52 (VRYPEI; Designed peptide) [compound 52] | 10

Row | Substance | Appearance Frequency
53 | 53 (ACRSAF; Designed peptide) [compound 53] | 9
54 | 54 (FDHFYS; Designed peptide) [compound 54] | 9
55 | 55 (GTRHPS; Designed peptide) [compound 55] | 9
56 | 56 (HRRGPS; Designed peptide) [compound 56] | 9
57 | 57 (HVRPFY; Designed peptide) [compound 57] | 9
58 | 58 (KFSHRK; Designed peptide) [compound 58] | 9
59 | 59 (MAWIGS; Designed peptide) [compound 59] | 9
60 | 60 (NTHRHS; Designed peptide) [compound 60] | 9
61 | 61 (PVRALC; Designed peptide) [compound 61] | 9
62 | 62 (RALAKR; Designed peptide) [compound 62] | 9
63 | 63 (REESFS; Designed peptide) [compound 63] | 9
64 | 64 (RKLFRN; Designed peptide) [compound 64] | 9
65 | 65 (SGTMQE; Designed peptide) [compound 65] | 9
66 | 66 (SGYYRV; Designed peptide) [compound 66] | 9
67 | 67 (SKHLAG; Designed peptide) [compound 67] | 9
68 | 68 (SSPRSH; Designed peptide) [compound 68] | 9
69 | 70 (AVGCHV; Designed peptide) [compound 70] | 8
70 | 71 (CNLIAK; Designed peptide) [compound 71] | 8
71 | 72 (DFGQSS; Designed peptide) [compound 72] | 8
72 | 73 (EWAVSK; Designed peptide) [compound 73] | 8
73 | 74 (FPYARN; Designed peptide) [compound 74] | 8
74 | 75 (FTMHTN; Designed peptide) [compound 75] | 8
75 | 76 (GGSHST; Designed peptide) [compound 76] | 8
76 | 77 (GMLRFP; Designed peptide) [compound 77] | 8
77 | 78 (GQRLTV; Designed peptide) [compound 78] | 8
78 | 79 (GWYFHA; Designed peptide) [compound 79] | 8

Row | Substance | Appearance Frequency
79 | 80 (HICIRR; Designed peptide) [compound 80] | 8
80 | 81 (HRSNGH; Designed peptide) [compound 81] | 8
81 | 82 (ILGGHS; Designed peptide) [compound 82] | 8
82 | 83 (KTRAIN; Designed peptide) [compound 83] | 8
83 | 84 (LASSGH; Designed peptide) [compound 84] | 8
84 | 85 (LHMKPI; Designed peptide) [compound 85] | 8
85 | 86 (MSTHKV; Designed peptide) [compound 86] | 8
86 | 87 (SIESCL; Designed peptide) [compound 87] | 8
87 | 88 (SITVLY; Designed peptide) [compound 88] | 8
88 | 89 (SRSICS; Designed peptide) [compound 89] | 8
89 | 90 (SSCVMP; Designed peptide) [compound 90] | 8
90 | 91 (SSLALH; Designed peptide) [compound 91] | 8
91 | 92 (TGHIVW; Designed peptide) [compound 92] | 8
92 | 93 (THACAH; Designed peptide) [compound 93] | 8
93 | 94 (TVASNN; Designed peptide) [compound 94] | 8
94 | 95 (VGHVNW; Designed peptide) [compound 95] | 8
95 | 96 (VGRFPQ; Designed peptide) [compound 96] | 8
96 | 97 (VISLET; Designed peptide) [compound 97] | 8
97 | 98 (VVWFTD; Designed peptide) [compound 98] | 8
98 | 99 (VYIMNH; Designed peptide) [compound 99] | 8
99 | 100 (WDRPAF; Designed peptide) [compound 100] | 8
100 | 101 (YEGRND; Designed peptide) [compound 101] | 8
101 | 102 (AFTSHW; Designed peptide) [compound 102] | 7
102 | 103 (AHLHCD; Designed peptide) [compound 103] | 7
103 | 104 (DRVQSR; Designed peptide) [compound 104] | 7
104 | 105 (EEMIVS; Designed peptide) [compound 105] | 7
